Experimental data taken from US10457916B2, “Method for inducing differentiation of insulin-producing cells” (TOKYO INSTITUTE OF TECHNOLOGY, priority 2014, dated 2019).

Legend:
Type in all cases: cell-based, human
[1] = tested on: differentiated cells at the end of stage 5; assay: C-peptide secretion in response to glucose and insulin secretagogues (ELISA); details: 1 hr, versus 2.5 mM glucose without secretagogues; 30 mM KCl, 100 μM tolbutamide, 2 μM Bay K8644, 0.5 mM IBMX, 250 μM carbachol
Method: (§1) The differentiated cells at the end of stage 5 were initially incubated at 37° C. for 30 min with DMEM (Life Technologies) containing minimal essential medium, 2.5 mM glucose and 1% B27 Supplement Xeno-Free CTS. This initial incubation was regarded as washing. Subsequently, the medium was discarded and then the cells were incubated with DMEM (100 μl per well) containing 2.5 mM glucose at 37° for 1 hr. After collecting the supernatant, the same cells were further cultured for 1 hr in 20 mM glucose-containing DMEM or 2.5 mM glucose-containing DMEM supplemented with various stimulants, e.g., 2 μM (−)-Bay K8644 (Sigma-Aldrich), 100 μM tolbutamide (Wako), 250 μM carbachol (Sigma-Aldrich), 0.5 mM IBMX or 30 mM potassium chloride (KCl) (Wako). The supernatant was collected again and stored at −20° C. until analysis. Finally, the cells were lysed with 0.01% Triton X-100 in PBS containing 1% protease inhibitor cocktail (Nacalai Tesque). Intracellular C-peptide and protein levels were quantitatively determined. C-peptide level was measured using a human C-peptide ELISA kit (ALPCO Diagnostics) according to the manufacturer's instructions. The total protein in cell lysate was quantitatively determined using a Bio-Rad reagent kit (Bio-Rad). The amount of C-peptide was normalized against the corresponding amount of the total protein.

[2] = tested on: endocrine progenitor cells; assay: Stage 5 differentiation into endocrine cells, immunocytochemistry; details: for proportion of PDX1-positive/CP-negative cells / proportion of CP single-positive cells: end of stage 5; for proportion of CP single-positive cells: added to basal medium with exendin-4 and nicotinamide
Method: (§2) To this medium were added 50 ng/ml exendin-4 (Ex-4; Cell Sciences), 10 mM nicotinamide (NA; Sigma-Aldrich), and/or 100 μM 3-isobutyl-1-methylxanthine (IBMX; phosphodiesterase inhibitor; Wako), and/or 10 μM forskolin (FRKL; adenylate cyclase activator; Wako). The media were changed every two days.

[3] = tested on: endocrine progenitor cells; assay: Intracellular C-peptide content of cells differentiated at stage 5 (ELISA); details: differentiated cells at the end of stage 5
Method: as §2
as §1, with “The supernatant was collected again and stored at −20° C. until analysis. Finally, the cells were lysed with 0.01% Triton X-100 in PBS containing 1% protease inhibitor cocktail (Nacalai Tesque).” left out, “The amount of C-peptide was normalized against the corresponding amount of the total protein.” left out

[4] = tested on: endocrine progenitor cells; assay: Stage 5 differentiation into endocrine cells, quantitative RT-PCR
Method: as §2

PG cells [5] = assay: Stage 3 differentiation into pancreatic progenitor cells, quantitative RT-PCR; details: higher concentrations of NOGGIN at stage 3, versus Nog 100
Excerpt: (§3) The medium was changed every two days.

PG cells [6] = assay: Stage 3 differentiation into pancreatic progenitor cells, immunocytochemistry
Excerpt: as §3

[7] = 200 ng/ml NOGGIN in stage-3 media
[8] = 200 ng/ml NOGGIN in stage-3 media with RA, KAAD-cyclopamine, SB431542

COC(=O)C1=C(C)NC(C)=C([N+](=O)[O-])C1c1ccccc1C(F)(F)F (single isomer, unassigned; (-)) [(−) BAY K8644]
increase of C-peptide secretion [1]: approximately 4.9 fold

C=C[C@@]1(C)CC(=O)[C@]2(O)[C@@]3(C)[C@@H](O)CCC(C)(C)[C@@H]3[C@H](O)[C@H](OC(C)=O)[C@@]2(C)O1 [FRKL, forskolin]
proportion of PDX1-positive/CP-negative cells [2]: approximately 27%
proportion of CP single-positive cells [2]: 5.6-6.4%
intracellular C-peptide contents [3]: approximately 62 ng/mg protein

CC(C)Cn1c(=O)n(C)c(=O)c2[nH]cnc21 [IBMX, 3-isobutyl-1-methylxanthine]
proportion of PDX1-positive/CP-negative cells [2]: approximately 22%
proportion of CP single-positive cells [2]: 6.5-6.7%
expression levels of β-cell specific genes ([4]; IBMX-induced cells versus FRKL-induced cells): relatively higher
INS expression ([4]; added to basal medium (DMEM/F12, 1% B27, exendin-4 and nicotinamide) at stage 5, versus DMSO): significantly upregulated
expression levels of β-cell maturity genes (PDX1, NKX6.1, MAF-A, ISL-1, UCN3, GCK, IAPP, SLC30A8) ([4]; end of stage 5, versus DMSO-induced cells): remarkably higher
intracellular C-peptide contents [3]: approximately 66 ng/mg protein
increase of C-peptide secretion [1]: approximately 4.9 fold

[Cl-].[K+] [KCl, potassium chloride]
increase of C-peptide secretion [1]: approximately 8.3 fold

C[N+](C)(C)CCOC(N)=O [carbachol]
increase of C-peptide secretion [1]: approximately 7.0 fold

CCCCNC(=O)NS(=O)(=O)c1ccc(C)cc1 [tolbutamide]
increase of C-peptide secretion [1]: approximately 3.0 fold

B1: NOGGIN: recombinant human NOGGIN, BMP signaling inhibitor (R&D Systems) (protein, UniProt Q13253 28-232, looked up)
Noggin: QHYLHIRPAPSDNLPLVDLIEHPDPIFDPKEKDLNETLLRSLLGGHYDPGFMATSPPEDRPGGGGGAAGGAEDLAELDQLLRQRPSGAMPSEIKGLEFSEGLAQGKKQRLSKKLRRKLQMWLWSQTFCPVLYAWNDLGSRFWPRYVKVGSCFSKRSCSVPEGMVCKPSKSVHLTVLRWRCQRRGGQRCGWIPIQYPIISECKCSC
expression level of early-stage pancreatic dorsal bud gene HLXB9 (PG cells [5]): remarkably upregulated
expression levels of PDX-1 and posterior foregut genes HNF6 and NKX6.1 (PG cells [5]): remarkably upregulated
gene expression levels of CDX2 and AFP (PG cells [5]): remarkably reduced
proportion of EC cells ([2]; NOGGIN at 200 ng/ml compared to 100 ng/ml at stages 3 and 4): higher proportion
AFP-positive hepatic cells and CDX2-positive intestinal progenitor cells appearing (PG cells [6]; 100 ng/ml NOGGIN at stage 3): considerable proportion
AFP-positive cells in the total DAPI-positive cells (PG cells [6]; [7]): 4%
CDX2-positive cells in the total DAPI-positive cells (PG cells [6]; [7]): 8%
PDX1-positive cells co-expressing HNF-6 (PG cells [6]; [8]): about 62%
PDX1-positive cells co-expressing SOX9 (PG cells [6]; [8]): about 59%
numbers of AFP-positive hepatic cells and CDX2-positive intestinal progenitor cells (PG cells [6]; 200-300 ng/ml NOGGIN at stage 3, versus 100 ng/ml): remarkably reduced
